Results: publication PMC4609936, “Pharmacologically targeted NMDA receptor antagonism by NitroMemantine for cerebrovascular disease” (Scientific Reports, 2015)
Where two headings read alike, the source gives them in different places.

Tests used:
LTP in hippocampal CA1 = test: LTP in hippocampal slices by field recordings; assay type: cell-based; conditions: 10 μM, high-frequency burst, rat hippocampal slices
[1] = test system: spontaneously hypertensive rats (SHR); test: Morris water maze; assay type: in vivo, rat; conditions: neuroprotective doses: 65.8 μmol/kg loading i.p., 3.29 μmol/kg every 12 h
Description: Adult male spontaneously hypertensive rats (SHR) were treated with either PBS or NitroMemantine (65.8 μmol/kg loading dose, i.p., followed by a 3.29 μmol/kg maintenance dose every 12 h). Each group was comprised of five rats (n = 5). Treatment for both groups commenced 48 h prior to the first day of testing. Both the treatment and water-maze testing were conducted in a blinded fashion. The water maze consisted of a circular pool 150 cm in diameter and 85 cm deep. The pool was filled to cover a moveable platform, black in color, by 1 cm of water. The water was made opaque via the addition of black paint and maintained at room temperature (20–23 °C) for the duration of the five days of testing. A white pool with black water allowed the video camera to successfully track the white rats with maximum contrast. On day 1, the rats were placed in the pool with no platform for 60 s of acclimation. Days 2 through 5 were used for testing. Starting on day 2 and continuing to day 5, rats were trained for 24 total trials (six trials/day) to locate and reach the submerged platform. The platform was kept in the same location for all trials in each session (day), but changed from session to session in a pre-determined order, yielding four unique locations in all. In addition, there were four possible release locations (the four cardinal compass directions at the pool’s perimeter). […]

Aqueous solubility = assay type: physicochemical
[2] = test system: spontaneously hypertensive rats (SHR); test: Physiological parameters during stroke; assay type: in vivo, rat; conditions: loading dose, n = 18 SHR
GluN1/GluN2A NMDARs = test: Oocyte voltage clamp, redox (S-nitrosylation) mediated inhibition of NMDA-evoked current; assay type: cell-based
Description: (§1) Two-electrode voltage clamp recordings at −60 or −70 mV were made on oocytes in frog Ringer’s solution two to seven days after injection of NMDAR subunits. Recordings were performed with an Oocyte Clamp OC-725b amplifier (Warner Instrument Corporation, Hamden, CT) using MacLab version 3.5 software (AD Instruments, Milford, MA) at room temperature. […] Both electrodes were filled with 3 M KCl. A solution containing 90 mM NaCl, 1 mM KCl, 10 mM HEPES, 1.5 mM BaCl2, and 10–100 μM glycine, pH 7.5 was used to continuously superfuse the oocytes. Barium, rather than calcium, was used as the divalent cation in order to minimize secondary activation of Ca^2+-activated Cl^− current. In some experiments, 1.2 mM MgCl2 was added to the bath solution. Drugs were dissolved in frog Ringer’s solution and applied by superfusion at a 2 ml/min flow rate. In some cases, to achieve relatively rapid solution exchange, we used an array of pipettes similar to the “sewer pipe” system used in patch-clamp recording. Perfusion artifacts were digitally removed from the traces.

[3] = biological target: GluN1(N616R)/GluN2A channels (Homo sapiens, UniProt Q05586+Q12879, N616R); test: Oocyte voltage clamp, redox effect on memantine binding site mutant; assay type: cell-based; conditions: for effect of GluN1(N616R) mutation on inhibition of current via S-nitrosylation: 200 µM
Description: as §1
Mutant NMDAR subunits were prepared using the Chameleon^TM double-stranded site-directed mutagenesis kit (Stratagene) according to the manufacturer’s instructions. The entire coding region was sequenced to verify the mutation.

[4] = test system: spontaneously hypertensive rats (SHR); test: Neurological/behavioral score after tMCAO/R; assay type: in vivo, rat; conditions: same doses as histology (memantine 90.3, NitroMemantine 65.8 μmol/kg loading), 24-h post stroke
Text: Each adult animal underwent a neurologic evaluation[51] immediately after filament removal and again 1 day after reperfusion (prior to sacrifice). Each animal was assigned an objective behavioral score of 0–4: 0 representing no observable neurological deficit; 1 failure to extend the left forepaw; 2 circling to the left; 3 falling to the left; 4 cannot walk spontaneously. The scores obtained 24-h post stroke were averaged for each time point of each treatment group and presented as the neurological score.

SNO-GluN1 and SNO-Drp1 = test: Biotin switch assay of S-nitrosylated proteins in brain after stroke; assay type: in vivo, rat; conditions: SHR, loading dose 2-h post occlusion, sacrificed 90 min thereafter
Description: Analysis of S-nitrosylation of NMDA receptors in rat brain was performed by the biotin switch assay, as previously described[48][49]. Free thiols in tissue lysates were blocked with methyl-methanethiosulfonate. Proteins were then precipitated with acetone and resuspended in HEN buffer (250 mM HEPES, pH 7.4, 1 mM EDTA, 0.1 mM neocuproine) plus 1% sodium dodecyl sulfate. Ascorbate was used to selectively reduce nitrosothiols in order to reform free thiol groups, which were subsequently biotinylated using 1 mM biotin-HPDP (Pierce, Rockford, IL). Parallel reactions were performed without ascorbate as a control to ensure specificity of the biotinylated bands. Biotinylated proteins were captured on streptavidin-agarose beads and analyzed by immunoblotting.

[5] = biological target: recombinant GluN1/GluN2A receptors (Homo sapiens, UniProt Q05586+Q12879); test: Two-electrode voltage clamp of oocytes, channel block of NMDA-induced current; assay type: cell-based; conditions: for steady-state channel block of NMDA current: 10 μM (equimolar), Vh −70 mV; for IC50: steady-state, short-term drug addition, holding potential −70 mV, nominal absence of extracellular Mg2+, read-out: IC50 of inhibiting NMDA-induced current
Description: […] Recordings were performed with an Oocyte Clamp OC-725b amplifier (Warner Instrument Corporation, Hamden, CT) using MacLab version 3.5 software (AD Instruments, Milford, MA) at room temperature. […] Both electrodes were filled with 3 M KCl. A solution containing 90 mM NaCl, 1 mM KCl, 10 mM HEPES, 1.5 mM BaCl2, and 10–100 μM glycine, pH 7.5 was used to continuously superfuse the oocytes. Barium, rather than calcium, was used as the divalent cation in order to minimize secondary activation of Ca^2+-activated Cl^− current. In some experiments, 1.2 mM MgCl2 was added to the bath solution. Drugs were dissolved in frog Ringer’s solution and applied by superfusion at a 2 ml/min flow rate. In some cases, to achieve relatively rapid solution exchange, we used an array of pipettes similar to the “sewer pipe” system used in patch-clamp recording. Perfusion artifacts were digitally removed from the traces.

[6] = test system: spontaneously hypertensive rats (SHR); test: tMCAO/R focal cerebral ischemia, infarct size by TTC staining; assay type: in vivo, rat; conditions: for histological protection (infarct size) at equimolar dose: MFD of NitroMemantine (65.8 μmol/kg loading, 3.29 μmol/kg maintenance); for histological protection (infarct, TTC staining): loading i.p. 2-h post occlusion: memantine 90.3 μmol/kg, NitroMemantine 65.8 μmol/kg, maintenance 12 h later, sacrificed at 24 h
Description: Because of their known propensity to stroke, similar to human patients with hypertension, we used spontaneous hypertensive rats (SHR, Harlan) to induce tMCAO/R with the intraluminal suture method. Male 200–300 g SHR were anesthetized with 3% isoflurane in 30% oxygen/70% nitrous oxide using an anesthetic vaporizer and flowmeter. Body temperature was maintained at 37 °C with a homeothermic temperature system. A laser Doppler monitor was used to monitor relative cerebral blood flow (rCBF) during the surgical procedure and recovery. rCBF measurements were made immediately after anesthesia, after occlusion of the MCA, just before, and immediately after withdrawal of the suture to initiate reperfusion. To initiate a stroke, a midline incision was made to expose the right common carotid, external carotid, and internal carotid arteries. The occipital artery branches of the external carotid artery were isolated and along with the terminal lingual and maxillary artery branches coagulated with an electrocautery unit. The internal carotid artery was isolated and carefully separated from the adjacent vagus nerve. The pterygopalatine artery was ligated close to its origin, two loosely tied sutures placed around the external carotid artery stump, and a microaneurysm clip applied to the external carotid artery near its bifurcation with the internal carotid artery. A small puncture opening was made in the external carotid artery, a monofilament (intraluminal suture) inserted through the opening, and the sutures tightened around the lumen containing the filament. The microaneurysm clip was removed from the external carotid artery and the monofilament gently advanced from the lumen of the external carotid artery into the internal carotid artery for a distance of ~19 to 20 mm beyond the bifurcation of the common carotid artery until the blood flow dropped (≥80% reduction by rCBF measurement). The suture around the external carotid artery stump was tightened to prevent bleeding. After 2 h, sutures were removed, the filament withdrawn and the incision sutured removed, with rCBF recovering at least 75% at reperfusion. Just prior to reperfusion, rats were administered memantine, NitroMemantine, or memantine-OH via i.p. injection in saline vehicle or an equivalent volume of vehicle alone. […] Maintenance doses (4.63 μmol/kg of memantine and 3.29 μmol/kg of NitroMemantine, equivalent to 1 mg/kg or each) were administered 12 h after the loading dose. […] In subsequent experiments, equimolar memantine, NitroMemantine YQW-036, or memantine-OH was used using the lower NitroMemantine dose described above. The rodents were sacrificed 24-h post occlusion, and the size of brain infarct was evaluated histologically by 2,3,5-triphenyl-2H-tetrazolium chloride (TTC) staining.

[7] = test system: NMDAR-mediated component of the EPSC; test: Evoked EPSCs in hippocampal autapses, whole-cell recording; assay type: cell-based, rat
[8] = biological target: NMDA-evoked currents in primary rat cortical neurons (Rattus norvegicus, UniProt P35439); test: Whole-cell patch clamp of NMDA-evoked currents in primary rat cortical neurons; assay type: cell-based; conditions: 5 μM, −75 mV and +30 mV
developing cerebrocortex = test: Cerebrocortical apoptosis by TUNEL in neonatal rats; assay type: in vivo; conditions: P7 rat pups, loading dose, 24 h later
[9] = design: method as in PMID 19915593; conditions: memantine 90.3 μmol/kg loading, 4.63 μmol/kg maintenance; cited from earlier work
[10] = test system: NMDAR-operated ion channel; conditions: cited from earlier work

Sequence of recombinant GluN1/GluN2A receptors (Q12879 23-1464, other chains not shown): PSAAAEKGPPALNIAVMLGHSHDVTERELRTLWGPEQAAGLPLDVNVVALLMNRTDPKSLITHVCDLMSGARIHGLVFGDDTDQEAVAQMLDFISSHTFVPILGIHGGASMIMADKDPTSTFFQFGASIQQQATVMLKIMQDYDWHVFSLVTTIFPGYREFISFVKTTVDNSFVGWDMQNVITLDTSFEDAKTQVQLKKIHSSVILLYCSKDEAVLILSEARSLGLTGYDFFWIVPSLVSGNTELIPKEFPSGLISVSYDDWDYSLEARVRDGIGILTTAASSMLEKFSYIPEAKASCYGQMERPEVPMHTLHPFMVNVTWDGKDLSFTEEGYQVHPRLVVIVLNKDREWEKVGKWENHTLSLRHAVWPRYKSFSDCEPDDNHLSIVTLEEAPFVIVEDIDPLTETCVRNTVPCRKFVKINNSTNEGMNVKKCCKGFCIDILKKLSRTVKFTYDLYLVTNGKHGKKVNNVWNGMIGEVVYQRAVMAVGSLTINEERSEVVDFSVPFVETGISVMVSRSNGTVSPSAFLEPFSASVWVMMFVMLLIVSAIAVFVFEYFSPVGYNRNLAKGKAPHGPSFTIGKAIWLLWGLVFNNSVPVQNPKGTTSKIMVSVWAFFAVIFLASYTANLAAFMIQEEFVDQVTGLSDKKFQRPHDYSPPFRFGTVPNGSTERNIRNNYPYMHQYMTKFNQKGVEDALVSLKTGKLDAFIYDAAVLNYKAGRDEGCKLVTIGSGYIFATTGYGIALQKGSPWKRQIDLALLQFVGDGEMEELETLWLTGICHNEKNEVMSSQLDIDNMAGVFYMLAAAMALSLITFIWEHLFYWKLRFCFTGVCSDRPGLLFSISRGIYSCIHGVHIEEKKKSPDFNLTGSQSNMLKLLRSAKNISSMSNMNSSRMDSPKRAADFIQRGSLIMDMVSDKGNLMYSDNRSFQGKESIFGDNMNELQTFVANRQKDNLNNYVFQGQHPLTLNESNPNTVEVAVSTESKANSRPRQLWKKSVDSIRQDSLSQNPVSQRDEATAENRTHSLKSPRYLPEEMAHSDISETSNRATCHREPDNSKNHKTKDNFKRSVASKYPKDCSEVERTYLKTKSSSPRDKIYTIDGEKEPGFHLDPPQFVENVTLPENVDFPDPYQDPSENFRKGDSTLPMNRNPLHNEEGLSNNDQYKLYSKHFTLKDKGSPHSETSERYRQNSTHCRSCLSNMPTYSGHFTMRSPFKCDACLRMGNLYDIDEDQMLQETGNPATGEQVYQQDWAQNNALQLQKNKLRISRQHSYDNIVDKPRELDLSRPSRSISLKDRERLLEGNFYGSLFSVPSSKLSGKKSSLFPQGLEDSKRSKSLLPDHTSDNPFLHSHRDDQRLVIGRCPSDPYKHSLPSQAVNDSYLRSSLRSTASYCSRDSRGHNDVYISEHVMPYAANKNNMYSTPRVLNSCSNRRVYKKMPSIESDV
Sequence of GluN1(N616R)/GluN2A channels (Q12879 23-1464, other chains not shown): as above

With CCC12CC3(N)CC(CC)(C1)CC(O[N+](=O)[O-])(C3)C2 [YQW-036] the “effect on LTP induction” value (LTP in hippocampal CA1) was “did not inhibit LTP”, the “Morris water maze performance” value [1] was “not affected” and the aqueous solubility (Aqueous solubility) was “lower solubility in aqueous solution”. For the same compound, the “physiological parameters (temperatures, blood pressure, metabolic panel)” value [2] was “not significantly affected”, the “inhibition of NMDA-evoked current under conditions used to observe S-nitrosylation” value (GluN1/GluN2A NMDARs; 100 μM, Vh −60 mV) was “inhibited NMDA-evoked current” and the “prolonged inhibitory effect after prior MTSEA or mutation of redox-active cysteines” value (GluN1/GluN2A NMDARs; prior addition of MTSEA or mutation of redox-active cysteines in the NMDAR) was “largely abrogated”. For the same compound, the “redox-mediated activity on GluN1(N616R) mutant” value ([3]; 100 μM) was “abrogated”, the neurological/behavioral score [4] was “showed a protective effect” and the “S-nitrosylation of Drp1 (SNO-Drp1)” value (SNO-GluN1 and SNO-Drp1) was “not significantly affected”. The “S-nitrosylation of the GluN1 subunit (SNO-GluN1), ipsilateral to stroke” value (SNO-GluN1 and SNO-Drp1) was “significant increase”, the “steady-state channel block of NMDA current” value (shortened to “steady-state channel block”) [5] was “approximately the same degree as memantine” and the “inhibition of NMDA-evoked current in the presence of extracellular Mg2+” value ([5]; 10 µM, 1.2 mM Mg2+, NMDA 100 µM, holding potential −40 mV) was “inhibited”. For the same compound, the IC50 [5] was 2.4 µM, the “histological protection (infarct size) at equimolar dose” value [6] was “significant benefit” and the “histological protection (infarct, TTC staining)” value [6] was “protected to a greater extent than memantine”. The “histological protection (infarct, TTC staining)” value ([6]; listed as NitroMemantine) was “offer histological protection”, the “change of EPSC blockade with repeated electrical stimulation (pulses 1–10)” value ([7]; 10 μM) was “did not significantly increase” and the “block of NMDAR-mediated component of the EPSC” value ([7]; 10 μM, 20 μM CNQX present) was “blocked to a lesser extent”. The “blockade of NMDA-evoked current, voltage dependence” value [8] was “approximately equivalent degree of blockade at both –75 mV and less blockade at +30 mV” and the “cerebrocortical neuronal apoptosis (TUNEL)” value (developing cerebrocortex) was “do not cause”.

For N[C@H](CCCP(=O)(O)O)C(=O)O [D-AP5, (2R)-amino-5-phosphonopentanoate], the “block of NMDAR component of the EPSC” value ([7]; 50 μM, control) was “completely blocked”.

In the case of CC12CC3(C)CC(N)(C1)CC(O[N+](=O)[O-])(C2)C3 [YQW-035], the “effect of GluN1(N616R) mutation on inhibition of current via S-nitrosylation” value [3] is reported as “eliminated inhibition”, the “steady-state channel block” value [5] is reported as “less channel block than memantine but more than amantadine” and the IC50 [5] is reported as 6.3 µM.

For NC12CC3CC(CC(C3)C1)C2 [amantadine, reference compound], the “steady-state channel block” value [5] was “inhibited less NMDA current at steady state than equimolar memantine”.

In the case of C[C@]12N[C@H](Cc3ccccc31)c1ccccc12 [MK-801, reference compound], the “effect on LTP induction” value (LTP in hippocampal CA1) is reported as “completely inhibited LTP induction”.

With CCCC12CC3(N)CC(CCC)(C1)CC(O[N+](=O)[O-])(C3)C2 [YQW-037] the aqueous solubility (Aqueous solubility) was “cannot be dissolved in aqueous solutions”.

In the case of CC12CC3CC(C)(C1)CC(N)(C3)C2 [memantine], the “physiological parameters (temperatures, blood pressure, metabolic panel)” value [2] is listed as “not significantly affected”, the “concentration at the mouth of the NMDAR-associated ion channel” value [9] is listed as 5 to 10 µM and the “histological protection (infarct size) at equimolar dose” value [6] is listed as “no significant protection”. The “histological protection (infarct, TTC staining)” value [6] was “offer histological protection”, the IC50 [10] was 0.5 to 1 µM and the “block of NMDAR-mediated component of the EPSC” value [7] was “blocks neurotransmission to a greater degree than NitroMemantine”. For the same compound, the “change of EPSC blockade with repeated electrical stimulation (pulses 1–10)” value [7] was “use-dependent”, the “blockade of NMDA-evoked current, voltage dependence” value [8] was “approximately equivalent degree of blockade at both –75 mV and less blockade at +30 mV” and the “cerebrocortical neuronal apoptosis (TUNEL)” value (developing cerebrocortex) was “do not cause”.

With N[C@@H](CSN=O)C(=O)O [SNOC, S-nitrosocysteine, reference compound] the “effect of GluN1(N616R) mutation on inhibition of current via S-nitrosylation” value [3] was “did not affect inhibition”.
